Reference: patent publication US20060167005A1, “New therapeutic uses of (4-(2-fluorophenyl)-6-methyl-2-(1-piperazinyl) thieno [2,3-d] pyrimidine” (priority 2002, published 2006)

What was measured:
[1] = system: adult female obese Zucker rats; assay: Obesity and weight gain in obese Zucker rats over 32 days; assay type: in vivo, rat; conditions: 30 mg/kg orally once daily, vs vehicle group
Description: MCI-225 is evaluated in adult female obese Zucker rats over a period of 32 days. A control group of 6 animals is dosed daily with vehicle alone whilst a second group of 6 weight-matched animals receives MCI-225 at 30 mg/kg given orally once daily. Food is available ad libitum, except on days 0, 7, 14, 21, 28 and 32 when food was removed from the animals at 7.30 am and animals weighed within 2 hours following removal of food. Food is supplied after weights of animals are measured.

alcohol-preferring rats = assay: Alcohol intake in alcohol-preferring rats; assay type: in vivo, rat; conditions: 30 mg/kg/day orally over 4 consecutive days, vs vehicle
Description: The effects of MCI-225 are determined in alcohol-preferring rats. Because of their pattern of drinking, these animals seem to represent a valid model of the human condition of alcoholism (McBride et al, 1990, Alcohol 7:199-205, Lankford et al, 1991, Pharmacol. Biochem. Behav., 8:293-299). After maximally preferred alcohol concentrations had stabilised for 4 days, MCI-225 at 30 mg/kg/day orally or vehicle was administered over 4 consecutive days.

rats [2] = assay: Nicotine withdrawal model using the acoustic startle reflex in rats; assay type: in vivo, rat; conditions: for example 30 mg/kg/day following nicotine withdrawal (nicotine 6 mg/kg/day s.c. for 12 days)
Description: The effects of MCI-225 are investigated in a model of nicotine withdrawal using the acoustic startle reflex in rats (see e.g. Helton et al, 1997, Neuropharmacology 36 (11-12):1511-1516). Nicotine (6 mg/kg/day) is administered for 12 days subcutaneously by osmotic minipumps. After 12 days, the pumps are removed and the animals allowed to go through spontaneous withdrawal. Cessation of chronic nicotine exposure leads to increased startle responses (sensorimotor reactivity) for 4 days following withdrawal.

rats [3] = assay: Transient middle cerebral artery occlusion model in rats; assay type: in vivo, rat; conditions: 30 mg/kg, for example 2 hours after onset of occlusion, vs vehicle-treated animals
Excerpt: The effects of MCI-225 are studied in a transient middle cerebral artery occlusion model in rats (see Chen et al, 1999, J. Neurol. Sci. 171(1):24-30). In particular, effects on an array of functional measures are studied, including rotarod, adhesive-backed somatosensory and neurological scores.

ferret = assay: Cisplatin-induced emesis in the ferret; assay type: in vivo; conditions: 30 mg/kg orally 1 hour prior to cisplatin, vs control animals
Excerpt: The effects of MCI-225 are studied against cisplatin-induced emesis in the ferret (see Florczyk et al, 1982, Cancer Treat. Rep. 66(1):187-189). […] Efficacy against cisplatin predicts efficacy against radiation-induced nausea/vomiting.

With `Cc1cc2c(-c3ccccc3F)nc(N3CCNCC3)nc2s1.Cl.O` [MCI-225] the body weights [1] was “lower body weights”, the “intake of alcohol in terms of absolute g/kg and/or proportion of alcohol to total fluid intake” value (alcohol-preferring rats) was “reduction in intake of alcohol” and the “enhanced auditory startle response following withdrawal of nicotine” value (rats [2]) was “attenuation of the enhanced auditory startle response”. The “functional scores (rotarod, adhesive-backed somatosensory, neurological) following ischaemia” value (rats [3]) was “improvement in one or more of the functional scores” and the emetic response (ferret) was “reduction in the emetic response”.
